Where a name gives a salt, the structure may show the parent alone.
Experiments:
[1] = tested on: mice received ^60Co radiation at 4Gy; assay: Effects of Arctigenin on blood cell counts of mice under 60Co radiation; assay type: in vivo, Kunming mice
From the text: 1.1 Animals: Kunming mice (purchased from National Institute for the Control of Pharmaceutical and Biological Products, China; Laboratory Animal NO: SCXK II-00-0010; female/male ratio at 1:1; Age: 7 weeks; […] The rest mice were included in the experiment. The mice fulfilled the experimental requirements after radiation were divided randomly into the following groups of: model group, group of burdock extract and Arctigenin group (each group: n=10; F/M=1:1). Each group was subjected to treatment or administration as follows: • 1. Normal Group (Group N): peritoneal injection of 0.9% physiological saline at a volume of 10 ml/kg; • 2. Model Group (Group M): peritoneal injection of 0.9% physiological saline at a dose of […]; • 3. Group of burdock Extract (Group E): peritoneal injection of water […] of Arctium lappa at a dose of 3.5 ml/kg/d; • 4. Arctigenin Group (Group A): peritoneal injection of 10 mg/kg/d Arctigenin at a volume of 10 ml/kg. Said burdock extract was prepared by: 1) placing burdock in a pot, adding water till the plant was immerged; 2) soaking burdock for 30 min for promoting the extraction of the effective components; 3) rapidly heating till boiling, fully boiling for 1-3 min, further heating for 20-30 min for concentration, and filtrating through sterile gauzes into a beaker; and 4) mixing the first dose with re-extracted agents uniformly after the first extraction for balancing their effects. 200 ml water extracts were prepared from 1 kg burdock. The administration was given to each group once per day for 10 days in total. During the experimental process, the animals were observed everyday for their diets, survivals and behaviors and weighted every day. At the end of the experiment, the animals were anaesthetized and anatomize to take blood from abdominal vena cava for blood routine examination, including total white blood cell count and total platelet count.

[2] = Body weight and tolerability of tumor-bearing mice during administration; assay type: in vivo, Kunming mice; settings: for Body weight before administration: mouse, in vivo
Experimental: (§1) The murine cancer cell line s180 was cultured in 1640 culture medium at 37° C., 5% CO2, sub-cultured every two days on average till logarithmic growth phase and then prepared into single cell suspension at 3.0×10^7 cell/ml with physiological saline. The cell suspension was injected into abdominal cavity of mice under sterile conditions. The mice were sacrificed by cervical dislocation at 7 days after inoculation when the abdominal cavity expanded obviously, and then soaked in a flask with 75% ethanol for 2-3 min. The sterilized mice were placed on a superclean bench with abdomen exposed. The ascites were taken with sterile injectors and stored in sterile vials for further use. The ascites was counted by Trypan blue staining, and then diluted to 2.0×10^7 cell/ml with physiological saline. The animals were inoculated with the dilutions in the right armpit at 0.2 ml/animal.
(§2) The inoculated animals were divided randomly into following six groups with 10 animals each group (F:M=1:1): • 1. Model Group (Group M): receiving peritoneal injection of 0.9% physiological saline; • 2. Docetaxel Group (Group D): receiving 75 mg/m^2/d Docetaxel; • 3. Imatinib Mesylate Group (Group IM): receiving 222.2 mg/m^2/d Imatinib Mesylate; • 4. Arctigenin Group (Group A): receiving 10 mg/m^2/d Arctigenin; • 5. Docetaxel plus Arctigenin Group (Group D+A): receiving 75 mg/m^2/d Docetaxel plus 10 mg/m^2/d Arctigenin; • 6. Imatinib Mesylate plus Arctigenin Group (Group IM+A): receiving 222.2 mg/m^2/d Imatinib Mesylate plus 10 mg/m^2/d Arctigenin.
(§3) Docetaxel and Imatinib Mesylate were administered via tail vein injection at dosages of 20 ml/kg. Arctigenin was administered via peritoneal injection at a dosage of 10 ml/kg. The administration was given to each group once per day for 10 days in total. During the experimental process, the animals were observed everyday for their diets, survivals and behaviors and weighted every day. At the end of the experiment, the animals were anaesthetized and anatomize to draw blood from abdominal vena cava for blood routine examination, including total white blood cell count, total platelet count and neutrophil count.

NOD mouse = assay: Effects of Arctigenin on white blood cell and platelet of NOD mouse; assay type: in vivo, NOD/Ltj mice; settings: for White Blood Cells / platelets: NOD/Ltj mice, n=13
From the text: Non-obese diabetic or NOD mice is a large mouse strain, including NOD/Scid, NOD/Ltj mice and the like. Yi Feng (Yi Feng, et al., “In vitro Expansion of Cord Blood Megakaryocyte Progenitor”, ACTA Academiae Medicinae Sinicae, Vol. 27, NO. 2, pp 199-204) directly expanded megakaryocyte progenitor from cord blood CD34+ cells by using thrombopoietin (TPO), interleukin-11 (IL-11) and heparin in combination. Intravenous infusion of the megakaryocytes expanded for 7 days (at a concentration of 5×10^6) into NOD/SCID mice received pre-treatment of radiation could accelerate the recovery of platelet and white blood cell account and improved the survival of the mice.
1.1 Animals: 52 NOD/Ltj mice (purchased from Vital River Laboratory Animal Technology Co., Ltd., Beijing; Laboratory Animal NO: SCXK (BJ) 2006-2009), female, Age: 5 weeks, Body weight: 16-20 g.
After one week of adaptive feeding, healthy NOD mice aged of 5 weeks were divided randomly into 4 groups: • I. Model Control Group: 13 animals; • II. Positive Control Group: 13 animals receiving gavage of interleukin at dose of 10.0 mg/kg every day; • III. Low-dose Arctigenin Group: 13 animals receiving gavage of […] at dose of 30 mg/kg every day; • IV. High-dose Arctigenin Group: 13 animals receiving gavage of […] at dose of 60 mg/kg every day.
The administration was given consecutively to each group once per day, and stopped after 15 days. The animals were then anaesthetized (3% pentobarbital sodium via intraperitoneal injection at 0.1˜0.15 ml/animal) and 1 ml blood was taken via abdominal vena cava for blood routine examination.

[3] = tested on: Tumor-bearing mice (murine cancer cell line s180); assay: Effects of Arctigenin on myelosuppression caused by chemotherapy in tumor-bearing mice (blood routine examination); assay type: in vivo, Kunming mice; settings: for Neutrophil / White Blood Cells / platelet: s180 tumor-bearing mice, 10 days once per day, Docetaxel 75 mg/m^2/d, Imatinib Mesylate 222.2 mg/m^2/d tail vein, Arctigenin 10 mg/m^2/d peritoneal, n=10
Experimental: as §1, with “The” for “The murine cancer cell line s180 was cultured in 1640 culture medium at 37° C., 5% CO2, sub-cultured every two days on average till logarithmic growth phase and then prepared into single cell suspension at 3.0×10^7 cell/ml with physiological saline. The”
as §2, with “Imatinib Mesylate Group (Group IM): receiving 222.2 mg/m^2/d Imatinib Mesylate; • 4.” left out, “6.” for “6. Imatinib Mesylate plus Arctigenin Group (Group IM+A): receiving 222.2 mg/m^2/d Imatinib Mesylate plus 10 mg/m^2/d Arctigenin.”
as §3

[4] = mice after 60Co 4 Gy whole body radiation, peritoneal injection once per day for 10 days, Arctigenin 10 mg/kg/d, burdock water extract 3.5 ml/kg/d, n=10
[5] = high-dose, gavage 60 mg/kg every day for 15 days
[6] = low-dose, gavage 30 mg/kg every day for 15 days

Row | SMILES | Total white blood cell count and platelet count in comparison with the model group ([1]; 60Co 4 Gy radiated mice, P<0.01 or P<0.05, in words) | White Blood Cells [1, 4] | platelet [1, 4] | Body weight before administration [2] [g] | Toxic or side effects ([2]; tumor-bearing mice, 10 days administration, in words) | White blood cell counts and platelet counts compared with model group (NOD mouse; NOD mice, low-dose and high-dose groups, in words) | White Blood Cells (NOD mouse; [5]) | platelets (NOD mouse; [5]) | White Blood Cells (NOD mouse; [6]) | platelets (NOD mouse; [6]) | Neutrophil [3] | White Blood Cells [3] | platelet [3] | Total white blood cell count and total neutrophil count compared with the Docetaxel group and the imatinib mesylate group ([3]; tumor-bearing mice, P<0.01, in words) | Total white blood cell count and total neutrophil count compared with the model group ([3]; tumor-bearing mice, P<0.01 or P<0.05, in words) | Neutrophil numbers in comparison with Group M ([3]; tumor-bearing mice, in words)
1 | COc1cc(C[C@H]2C(=O)OC[C@@H]2Cc2ccc(OC)c(OC)c2)ccc1O [Arctigenin] | increase in both total white blood cell count and the platelet count | 4.225 ± 0.51^##$ 10^9/L | 596.2 ± 72.5^#$ 10^9/L | 21.1 ± 3.0 | does not have significant toxic or side effects | significantly higher | 4.225 ± 0.51^##$ 10^9/L | 780.2 ± 46.5^##$$ 10^9/L | 3.242 ± 0.45^#$ 10^9/L | 730.5 ± 34.6^##$ 10^9/L | 1.316 ± 0.15^#**^$$ 10^9/L | 3.530 ± 0.31^##**^$$ 10^9/L | 687.4 ± 37.3^## 10^9/L | significant increases in total white blood cell count and total neutrophil count | increase in both the total white blood cell count and the total neutrophil count | 
2 | Cc1ccc(NC(=O)c2ccc(CN3CCN(C)CC3)cc2)cc1Nc1nccc(-c2cccnc2)n1 [Group IM, Imatinib Mesylate] |  |  |  | 21.3 ± 2.3 |  |  |  |  |  |  | 0.695 ± 0.09 10^9/L | 2.703 ± 0.37 10^9/L | 432.9 ± 34.8 10^9/L |  |  | decreased significantly
3 | CC(=O)O[C@@]12CO[C@@H]1C[C@H](O)[C@@]1(C)C(=O)[C@H](O)C3=C(C)[C@@H](OC(=O)[C@H](O)[C@@H](NC(=O)OC(C)(C)C)c4ccccc4)C[C@@](O)([C@@H](OC(=O)c4ccccc4)[C@H]21)C3(C)C [Group D, Docetaxel] |  |  |  | 21.2 ± 1.8 |  |  |  |  |  |  | 0.670 ± 0.12 10^9/L | 2.773 ± 0.46 10^9/L | 450.6 ± 30.5 10^9/L |  |  | decreased significantly

From patent US20130190394A1, “Applications Of Arctigenin In Formulating Drugs For Preventing Or Treating Diseases Related To Red Blood Cell Reduction” (priority 2010, published 2013)
